Consider five compounds from patent US12502391B2, “Multi-kinase inhibitors of VEGF and TGF beta and uses thereof” (AIVIVA BIOPHARMA, INC., priority 2018, dated 2025).

Several values for one entry are separate records, joined by “and”; a condition that tells them apart may be missing. Equal values may be shown once. Where a name gives a salt, the structure may show the parent alone.

Data set [1] has as its system rabbit ear hypertrophic scar. Briefly: Histopathology of rabbit ear wounds (neovascularization, fibrosis, re-epithelization). Further details: key to Total Score, Treated Mean: aggregate of neovascularization, fibrosis, re-epithelization grades; key to Neovascularization score, Treated Mean / Fibrosis/Collagen score, Treated Mean / Re-epithelization score, Treated Mean: five-step severity grade: minimal, mild, moderate, marked, severe. Type of data set: in vivo, New Zealand white rabbits. The conditions noted are these: rabbit ear wound, intradermal dosing of 1 wt. %. The procedure: In New Zealand white rabbits, maintained under a surgical plane of anesthesia, trauma stimulation of the skin on the ventral surface of both ears is initiated on Day 1. Trauma sites are evaluated on Days 8, 15, 22, 29, 36, and 43. On days 15 and 29, each site is dosed with test compounds (e.g., 1% w/w, 100 μl) by intradermal or intralesional injections.
At necropsy, each treatment site was harvested and preserved for hematoxylin and […] and Mason's trichrome stainings. Each lesion was examined histologically and graded for neovascularization, fibrosis and re-epithelization using a five-step/severity grading system (minimal, mild, moderate, marked, and severe). The average total score is an aggregation of these microscopic findings relating to an inflammatory response.

Another data set relates to TGF-β1 mRNA. Briefly: TGF-β1 mRNA expression (qRT-PCR) in Yucatan pig skin wound sites. Format: in vivo, Yucatan minipigs. As to conditions: Yucatan pig skin wound sites after treatments; for TGF-β1 mRNA Expression Fold Relative to Untreated Unwounded Control: individual animals 7369, 7370, 7371, duplicate sets 1 and 2, beta actin reference gene. From the text: (§1) In this experiment, multiple full-thickness excision wounds were made to the dorsum of Yucatan minipigs, and the wound sites were allowed to be re-epithelialized adequately. At four weeks post-wound, the wound sites had normal to pink vascularity and had pliability. Epidermal hyperplasia was observed, as expected for regenerative responses in the full-thickness wounds.
(§2) On Day 28 post-wound, a dose (e.g., 1%) of axitinib, nintedanib, riociguat, sorafenib, sunitinib, and/or lenvatinib was administered into the dermal tissue at or around the wound sites, once every two weeks on two occasions. One wound site was left untreated as the control for each pig. Please note that the particular parameters in this example are only for illustration. One skilled in the art would appreciate that the dosages, administration methods, treatment regimen, and the administration sites may be varied to achieve similar results.
In addition, total mRNA was isolated from skin biopsies of the treated wound sites and the untreated unwounded sites of the pigs. The mRNA samples were used to prepare cDNA and analyzed via qRT-PCR. The TGF-β1 expression levels were assessed using beta actin as a reference gene.

Data set [2] has as its system full-thickness excision wounds. Briefly: Histology of full-thickness excision wounds in Yucatan minipigs (fibroplasia, neovascularization). Format: in vivo. As to conditions: Yucatan minipig wound sites after two doses, Day 59, scale 1 (minimal) to 5 (severe); for Neovascularization; dermis, average score: untreated 2.33; for Fibroplasia; dermis, average score: untreated 3.33.
Description: as §1, §2
On Day 59 post wound, the minipigs were sacrificed and dermal tissues were collected for qualitative and quantitative evaluation using hematoxylin and eosin, and Mason's Trichrome staining. Dermal fibroplasia was characterized by increased numbers of fibroblasts in the dermis suspended in variable amounts of collagen in wounds.

The test system of data set [3] is benign prostate hyperplasia. Briefly: Testosterone and phenylephrine induced benign prostate hyperplasia in rats. Format: in vivo, Wistar rats. More on the design: key to epithelial hyperplasia score, dorsolateral prostate, representative image / epithelial hyperplasia score, ventral prostate, representative image: severity grade 0 = not present to 5 = severe. Here is the method:
BPH is a true hyperplastic process. Histologic studies have documented an increase in cell number. A study was conducted, therefore, to determine the effects of test compounds and vehicle on testosterone (TE) and phenylephrine (PE) induced benign prostate hyperplasia in rats. Male Wistar rats were induced with testosterone (2 mg/kg) plus phenylephrine (5 mg/kg) administered daily by subcutaneous injection on days 5 through 32. Vehicle or test compounds (all at 1% w/w), nintedanib, sunitinib, lenvatinib, and 0.5% doxazosin mesylate, were administered by intra-prostate injection (0.4 ml) in dorsolateral and ventral lobes on days 1 and 18. Animals were euthanized on day 32. Body weights were determined and prostate glands were harvested. The experimental design is outlined in Table 6.
At necropsy, the ventral and dorsolateral lobes of the prostate were separated and then cut into halves. The left halves were fixed in 10% neutral buffered formalin, sectioned, and stained with Hematoxylin and Eosin (H&E). Histological changes in these sections were scored. Epithelial hyperplasia was recognized as an increase in epithelial cells within normal-appearing gland profiles, primarily reflected by stratification of epithelial cells and increased presence of epithelial tufting and papillary projections. A severity grade of 0 (not present) through 5 (severe) was assigned to each sample.

The next data set relates to subconjunctival scarring. Briefly: Bleb survival after glaucoma filtration surgery in rabbit eyes. Format: in vivo, rabbits. The procedure:
In order to investigate the anti-scarring effect of topically applied test compounds following ocular surgeries, glaucoma filtration surgery was performed on rabbit eyes. Postoperative subconjunctival wound healing is a major cause of late bleb failure after glaucoma filtration surgery in humans. Select multikinase inhibitors were tested for effect on bleb survival over time. Inhibition of subconjunctival fibrosis following surgery will improve bleb survival. Vehicle was used as a negative control and pirfenidone was used a positive control.
A scleral tract was created in the left eyes superiorally by tunneling a beveled 22-gauge intravenous cannula through the sclera, beginning behind the limbus and continuing until the cannula is visible in the anterior chamber. The cannula was flushed with sodium heparin (1000 units) prior to placement. The cannula needle was withdrawn and the cannula advanced beyond the pupillary margin to prevent iris blockage of the tube. The cannula was trimmed approximately 2 mm and secured to the sclera using suture. Both the Tenon's and the conjunctiva were sutured with 9-0 Prolene. Six rabbits were used per group and the left eye of each rabbit underwent glaucoma filtration surgery. The treatment groups include vehicle control, pirfenidone (1%, w/v) as a positive control, sorafenib (0.3%, w/v), and lenvatinib (0.3%, w/v). Eyedrops (35 uL) were topically applied to the eyes following surgery three times day for 30 days. All animals were sacrificed on Day 30.
Bleb was monitored throughout the study. Bleb volumes were measured with the use of calibrated calipers. […] There were differences noted between groups at Day 7, and the majority of blebs were gone by Day 14 through Day 30 indicating bleb failure due to subconjunctival scarring. Results of the vehicle and pirfenidone groups were similar to those reported in the literature (Zhong H et al., Invest Ophthalmol Vis Sci, 52: 3136-3142, 2011).

Data set [4] relates to suture-induced ocular fibrosis. Briefly: Rabbit corneal suture-induced ocular fibrosis model. Format: in vivo, rabbits. The conditions noted are these: topical three times daily, 10-day observation period. From the text: In order to investigate the anti-fibrotic effect of test compounds following wounding in the eye, a suture-induced ocular fibrosis model was used. Suture was placed intrastromally under a microscope in the cornea of rabbits. In each eye, one 9.0 silk suture was placed, in a vertical position, temporal to the corneal center and a second suture was placed nasal to the corneal center. Each suture had two stromal incursions approximately 2 mm from the limbus. Test compounds having certain spectrum of multikinase inhibition activities and/or vehicle were topically instilled (35 uL/eye) in the eyes three times daily for 10 days the day following surgery. The treatment groups include vehicle, nintedanib (0.3%, w/v), pirfenidone (1%, w/v), riociguat (0.3%, w/v), sorafenib (0.3%, w/v) and lenvatinib (0.3%, w/v). Six left eyes were used per treatment group.
The animals were sacrificed on Day 11 and the eyes enucleated and dissected for histopathological evaluation.

[5] abbreviates: five-step severity grading (minimal to severe).
Setting [6] is: TE and PE induced rats, intra-prostate injection 0.4 ml on days 1 and 18 (1% w/w; doxazosin mesylate 0.5%), severity grade 0 (not present) through 5 (severe), induced vehicle score=4.

Consider `CNC(=O)c1ccccc1Sc1ccc2c(/C=C/c3ccccn3)n[nH]c2c1` [axitinib], for which the “average total score of test wounds, fold lower than untreated wounds” value in data set [1] is recorded as “about 1.3 fold”. For the same compound, in data set [1] (aggregation of microscopic findings), the “Total Score, Treated Mean” value came to 4.6. For the same compound, in data set [1] (setting [5]), the “Fibrosis/Collagen score, Treated Mean” value amounted to 3.3; the “Neovascularization score, Treated Mean” value is 1; the “Re-epithelization score, Treated Mean” value is recorded as 0.3. In addition, in the data set with TGF-β1 mRNA, the “TGF-β1 mRNA Expression Fold Relative to Untreated Unwounded Control” value was 0.89 fold and 0.68 fold (2×) and 0.64 fold and 0.37 fold and 0.78 fold. Further, in data set [2], the “Neovascularization; dermis, average score” value (“Neovascularization; dermis” below) is reported as “(1.67)” and the “Fibroplasia; dermis, average score” value is given as “(2.33)”.
As for `COc1cc2nc(N3CCN(C(=O)C4COc5ccccc5O4)CC3)nc(N)c2cc1OC` (centres unmarked) [doxazosin, doxazosin mesylate], in data set [3] (setting [6]), the “epithelial hyperplasia score, dorsolateral prostate, representative image” value worked out at 3 and the “epithelial hyperplasia score, ventral prostate, representative image” value is on record as 3. Also, in data set [3] (TE and PE induced rats, intra-prostate injection on days 1 and 18), the “glandular hyperplasia compared to untreated TE/PE induced prostates” value is “demonstrated reduction of glandular hyperplasia”.
Take `Cc1ccc(=O)n(-c2ccccc2)c1` [pirfenidone]: in the data set on subconjunctival scarring (eyedrops 35 uL three times a day, pirfenidone 1% w/v, lenvatinib 0.3% w/v, compared to vehicle and sorafenib groups), the “bleb survival on Day 7” value is “kept bleb survival on Day 7”. Further, the “bleb remaining / bleb failure on Day 30” value in the data set with subconjunctival scarring (eyedrops three times a day for 30 days, 6 animals per group) is listed as “demonstrated bleb failure”.
As for `COC(=O)N(C)c1c(N)nc(-c2nn(Cc3ccccc3F)c3ncccc23)nc1N` [riociguat], in the data set with TGF-β1 mRNA, the “reduction of TGF-β1 mRNA expression levels at treated wounds” value is reported as “most effective”; the “TGF-β1 mRNA Expression Fold Relative to Untreated Unwounded Control” value was 0.60 fold and 0.76 fold and 0.87 fold and 0.39 fold and 0.49 fold and 0.8 fold. For the same compound, in data set [2], the “Neovascularization; dermis” value is recorded as “(2.67)” and the “Fibroplasia; dermis, average score” value was “(2.67)”. Further, the “gross ocular observations: conjunctival congestion and swelling” value in data set [4] is on record as “slightly more severe reaction”.
Consider `CCN(CC)CCNC(=O)c1c(C)[nH]c(/C=C2\C(=O)Nc3ccc(F)cc32)c1C` [sunitinib], for which the “epithelial hyperplasia score, ventral prostate, representative image” value in data set [3] (1 % strength) came to 3. In addition, in data set [3] (setting [6]), the “epithelial hyperplasia score, dorsolateral prostate, representative image” value turned out to be 3. For the same compound, the “TGF-β1 mRNA Expression Fold Relative to Untreated Unwounded Control” value in the data set with TGF-β1 mRNA was 0.50 fold and 0.53 fold and 0.48 fold and 0.45 fold and 0.64 fold and 1.86 fold. For the same compound, in data set [2], the “Neovascularization; dermis” value is recorded as “(2.33)” and the “Fibroplasia; dermis, average score” value was “(2.67)”.
